Consider 14 compounds from patent US11046889B2, “Polymerizable compound and optically anisotropic body” (DIC Corporation, priority 2015, dated 2021).

This data set is described as follows: Solubility check of 20 wt % solutions in organic solvents. The format is physicochemical. As to conditions: room temperature or heated to 60° C.; for Results of Solubility Chloroform: 20 wt % solution in chloroform; for Results of Solubility Cyclopentanone: 20 wt % solution in cyclopentanone; for Results of Solubility MEK: 20 wt % solution in methyl ethyl ketone (MEK); for Results of Solubility MIBK: 20 wt % solution in methyl isobutyl ketone (MIBK); for Results of Solubility Toluene: 20 wt % solution in toluene; for Results of Solubility Trichloroethane: 20 wt % solution in trichloroethane. Also on record: key: A: the compound dissolves at room temperature; B: the compound does not dissolve at room temperature but dissolves when heated to 60° C.; the compound does not dissolve even when heated to 60° C. As to the method:
20 wt % solutions of each of the compounds to be evaluated in chloroform, trichloroethane, cyclopentanone, methyl ethyl ketone (MEK), methyl isobutyl ketone (MIBK), and toluene were prepared to check the solubilities of the compound to be evaluated.

As for `C=CC(=O)OCCOCCOCCOc1ccc(C(=O)Oc2ccc(-c3ccc(CCC)cc3)cc2/C=N/Nc2nc3ccccc3s2)cc1` [Compound I-1], the “Results of Solubility Chloroform” value is “A”, the “Results of Solubility Cyclopentanone” value is recorded as “A”, the “Results of Solubility MEK” value was “A” and the “Results of Solubility MIBK” value is “A”. Besides, the “Results of Solubility Toluene” value is on record as “A” and the “Results of Solubility Trichloroethane” value is “A”.

As for `C=CC(=O)OCCOCCOCCOc1ccc(OC(=O)C2CCC(C(=O)Oc3ccc(C4CCC(CCC)CC4)cc3/C=N/Nc3nc4ccccc4s3)CC2)cc1` (stereo not drawn) [Compound I-2], the “Results of Solubility Chloroform” value is recorded as “A”, the “Results of Solubility Cyclopentanone” value is “A”, the “Results of Solubility MEK” value was “A” and the “Results of Solubility MIBK” value is on record as “B”. In addition, the “Results of Solubility Toluene” value is on record as “A” and the “Results of Solubility Trichloroethane” value is “A”.

On to `C=CC(=O)OCCOCCOCCOc1ccc(OC(=O)C2CCC(C(=O)Oc3ccc(C4CCC(CCC)CC4)cc3/C=N/N(CCCCCC)c3nc4ccccc4s3)CC2)cc1` (stereo not drawn) [Compound I-3], for which the “Results of Solubility Chloroform” value was “A”, the “Results of Solubility Cyclopentanone” value is on record as “A”, the “Results of Solubility MEK” value is on record as “C” and the “Results of Solubility MIBK” value is given as “C”. For the same compound, the “Results of Solubility Toluene” value is on record as “B” and the “Results of Solubility Trichloroethane” value is given as “A”.

For the compound `C=CC(=O)OCCOCCOCCOc1ccc(OC(=O)C2CCC(C(=O)Oc3ccc(C4CCC(C5CCC(CCC)CC5)CC4)cc3/C=N/N(CCCCCC)c3nc4ccccc4s3)CC2)cc1` (stereo not drawn) [Compound I-4], the “Results of Solubility Chloroform” value is listed as “A”, the “Results of Solubility Cyclopentanone” value was “B”, the “Results of Solubility MEK” value is “C” and the “Results of Solubility MIBK” value is recorded as “C”. The “Results of Solubility Toluene” value is given as “B” and the “Results of Solubility Trichloroethane” value is reported as “B”.

`C=CC(=O)OCCOCCOCCOc1ccc(OC(=O)C2CCC(COc3ccc(OCC4CCC(C(=O)Oc5ccc(OCCOCCOCCOC(=O)C=C)cc5)CC4)c(/C=N/N(CCCCCC)c4nc5ccccc5s4)c3)CC2)cc1` (stereo not drawn) [Compound I-5]: the “Results of Solubility Chloroform” value is given as “A”, the “Results of Solubility Cyclopentanone” value is “A”, the “Results of Solubility MEK” value is reported as “B” and the “Results of Solubility MIBK” value is on record as “B”. Further, the “Results of Solubility Toluene” value is reported as “A” and the “Results of Solubility Trichloroethane” value is on record as “A”.

Take `C=CC(=O)OCCCCCCOc1ccc(OC(=O)C2CCC(COc3ccc(OCC4CCC(C(=O)Oc5ccc(OCCCCCCOC(=O)C=C)cc5)CC4)c(/C=N/N(CCOCCOC)c4nc5ccccc5s4)c3)CC2)cc1` (stereo not drawn) [Compound I-6]: the “Results of Solubility Chloroform” value was “A”, the “Results of Solubility Cyclopentanone” value is “A”, the “Results of Solubility MEK” value is listed as “B” and the “Results of Solubility MIBK” value is recorded as “B”. Also, the “Results of Solubility Toluene” value was “B” and the “Results of Solubility Trichloroethane” value was “A”.

For the compound `C=CC(=O)OCCCCCCOc1ccc(OC(=O)C2CCC(C(=O)Oc3ccc(C4CCC(CCC)CC4)cc3/C=N/N(CCOCCOC)c3nc4ccccc4s3)CC2)cc1` (stereo not drawn) [Compound I-7], the “Results of Solubility Chloroform” value was “A”, the “Results of Solubility Cyclopentanone” value is on record as “A”, the “Results of Solubility MEK” value is listed as “A” and the “Results of Solubility MIBK” value is recorded as “B”. The “Results of Solubility Toluene” value is “A” and the “Results of Solubility Trichloroethane” value is “A”.

With `C=CC(=O)OCCCOc1ccc(OC(=O)C2CCC(COc3ccc(OCC4CCC(C(=O)Oc5ccc(OCCCOC(=O)C=C)cc5)CC4)c(/C=N/N(CCOCCOC)c4nc5ccccc5s4)c3)CC2)cc1` (stereo not drawn) [Compound I-8], the “Results of Solubility Chloroform” value is given as “A”, the “Results of Solubility Cyclopentanone” value is on record as “A”, the “Results of Solubility MEK” value was “B” and the “Results of Solubility MIBK” value is recorded as “B”. The “Results of Solubility Toluene” value is reported as “A” and the “Results of Solubility Trichloroethane” value is “A”.

Turning to `C=CC(=O)OCCCCCCOc1ccc(OC(=O)C2CCC(COc3ccc(OCC4CCC(C(=O)Oc5ccc(OCCCCCCOC(=O)C=C)cc5)CC4)c(/C=N/N(CCOCCOCCOC(=O)C=C)c4nc5ccccc5s4)c3)CC2)cc1` (stereo not drawn) [Compound I-9], the “Results of Solubility Chloroform” value is given as “A”, the “Results of Solubility Cyclopentanone” value was “A”, the “Results of Solubility MEK” value was “A” and the “Results of Solubility MIBK” value was “B”. Also, the “Results of Solubility Toluene” value is “A” and the “Results of Solubility Trichloroethane” value is “A”.

With `C=CC(=O)OCCCCCCOc1ccc(OC(=O)C2CCC(COc3ccc(C4CCC(CCC)CC4)cc3/C=N/N(CCOCCOC)c3nc4ccccc4s3)CC2)cc1` (stereo not drawn) [Compound I-10], the “Results of Solubility Chloroform” value is on record as “A”, the “Results of Solubility Cyclopentanone” value is reported as “A”, the “Results of Solubility MEK” value is “B” and the “Results of Solubility MIBK” value is “B”. In addition, the “Results of Solubility Toluene” value was “A” and the “Results of Solubility Trichloroethane” value is “A”.

Consider `C=CC(=O)OCCCCCCOc1ccc(OC(=O)C2CCC(COc3ccc(-c4ccc(CCC)cc4)c(/C=N/N(CCOCCOC)c4nc5ccccc5s4)c3)CC2)cc1` (stereo not drawn) [Compound I-11], for which the “Results of Solubility Chloroform” value is on record as “A”, the “Results of Solubility Cyclopentanone” value is on record as “A”, the “Results of Solubility MEK” value is recorded as “B” and the “Results of Solubility MIBK” value was “B”. The “Results of Solubility Toluene” value is given as “A” and the “Results of Solubility Trichloroethane” value is “A”.

Consider `C=CC(=O)OCCOCCOCCOc1ccc(OC(=O)C2CCC(C(=O)Oc3ccc(OC(=O)C4CCC(C(=O)Oc5ccc(OCCOCCOCCOC(=O)C=C)cc5)CC4)c4sc(-c5ccc([N+](=O)[O-])cc5)nc34)CC2)cc1` (stereo not drawn) [Compound I-12], for which the “Results of Solubility Chloroform” value is on record as “A”, the “Results of Solubility Cyclopentanone” value is listed as “B”, the “Results of Solubility MEK” value is listed as “B” and the “Results of Solubility MIBK” value is reported as “C”. The “Results of Solubility Toluene” value is listed as “B” and the “Results of Solubility Trichloroethane” value was “A”.

For `C=CC(=O)OCCOCCOc1ccc(OC(=O)C2CCC(C(=O)Oc3ccc(OC(=O)C4CCC(C(=O)Oc5ccc(OCCOCCOC(=O)C=C)cc5)CC4)c4sc(-c5cc6c(C)cc(C)cc6o5)nc34)CC2)cc1` (stereo not drawn) [Compound I-13], the “Results of Solubility Chloroform” value was “A”, the “Results of Solubility Cyclopentanone” value was “B”, the “Results of Solubility MEK” value is given as “C” and the “Results of Solubility MIBK” value is “C”. The “Results of Solubility Toluene” value was “B” and the “Results of Solubility Trichloroethane” value was “A”.

As to `C=CC(=O)OCCOCCOC(=O)C1CCC(C(=O)OC2CCC(C(=O)Oc3ccc(OC(=O)C4CCC(OC(=O)C5CCC(C(=O)OCCOCCOC(=O)C=C)CC5)CC4)c4c3SC(=C3C(=O)N(c5ccccc5)N=C3C(=O)OCC)S4)CC2)CC1` (stereo not drawn) [Compound I-14], the “Results of Solubility Chloroform” value was “A”, the “Results of Solubility Cyclopentanone” value was “B”, the “Results of Solubility MEK” value is “B” and the “Results of Solubility MIBK” value was “C”. Besides, the “Results of Solubility Toluene” value is reported as “B” and the “Results of Solubility Trichloroethane” value was “A”.
